According to ChEMBL document CHEMBL1201862, “PubChem BioAssay data set” (2004):
The source made the active and inactive calls.

Key:
[1] = target: Leucine-rich repeat serine/threonine-protein kinase 2 (Homo sapiens, UniProt Q5S007); format: functional;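 note: value from a broad kinome-wide panel profiling study in which LRRK2 was one of the kinases tested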
[2] = target: Ribosomal protein S6 kinase alpha-3 (Homo sapiens, UniProt P51812); format: functional;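 note: measured within a kinome-wide profiling panel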
[3] = target: Dual specificity protein kinase CLK2 (Homo sapiens, UniProt P49760); format: functional
[4] = target: RAC-alpha serine/threonine-protein kinase (Homo sapiens, UniProt P31749); format: functional;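 note: AKT1 affinity measured as one member of a kinome-wide kinase profiling panel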
[5] = target: Dual specificity mitogen-activated protein kinase kinase 1 (Homo sapiens, UniProt Q02750); test: Navigating the Kinome. Panel member name: MAP2K1; format: functional
[6] = target: Proto-oncogene tyrosine-protein kinase receptor Ret (Homo sapiens, UniProt P07949); format: functional;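 note: measured within a kinome-wide profiling panel, RET as the panel member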
[7] = target: Cyclin-dependent kinase 1 (Homo sapiens, UniProt P06493); format: functional;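 note: Kinome-wide panel profiling, with the target listed as panel member CDC2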
[8] = target: Cyclin-dependent kinase 19 (Homo sapiens, UniProt Q9BWU1); test: Navigating the Kinome. Panel member name: CDC2L6; format: functional
[9] = target: Mitogen-activated protein kinase 14 (Homo sapiens, UniProt Q16539); format: functional;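 note: part of a kinome-wide panel, MAPK14 entry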
[10] = target: Aurora kinase B (Homo sapiens, UniProt Q96GD4); format: functional
[11] = target: Serine/threonine-protein kinase 3 (Homo sapiens, UniProt Q13188); format: functional;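 note: measured as one member of a kinome-wide kinase panel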
[12] = target: Calcium/calmodulin-dependent protein kinase type 1 (Homo sapiens, UniProt Q14012); format: functional
[13] = target: Calcium/calmodulin-dependent protein kinase type II subunit alpha (Homo sapiens, UniProt Q9UQM7); test: Navigating the Kinome. Panel member name: CAMK2A; format: functional
[14] = target: Testis-specific serine/threonine-protein kinase 1 (Homo sapiens, UniProt Q9BXA7); format: functional
[15] = target: Tyrosine-protein kinase receptor TYRO3 (Homo sapiens, UniProt Q06418); format: functional;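 note: TYRO3 value obtained as one member of a kinome-wide profiling panel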
[16] = target: Tyrosine-protein kinase SYK (Homo sapiens, UniProt P43405); format: functional
[17] = target: Serine/threonine-protein kinase 17A (Homo sapiens, UniProt Q9UEE5); format: functional
[18] = target: Macrophage colony-stimulating factor 1 receptor (Homo sapiens, UniProt P07333); format: functional;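 note: value comes from the Navigating the Kinome screening panel, CSF1R member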
[19] = target: Tyrosine-protein kinase JAK2 (Homo sapiens, UniProt O60674); format: functional;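 note: JAK2 tested as one member of a kinase panel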
[20] = target: cAMP-dependent protein kinase catalytic subunit PRKX (Homo sapiens, UniProt P51817); format: functional
[21] = target: Leukocyte tyrosine kinase receptor (Homo sapiens, UniProt P29376); test: Navigating the Kinome. Panel member name: LTK; format: functional
[22] = target: Proto-oncogene tyrosine-protein kinase ROS (Homo sapiens, UniProt P08922); format: functional;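 note: ROS1 tested as one member of a kinome-wide kinase panel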
[23] = target: Glycogen synthase kinase-3 alpha (Homo sapiens, UniProt P49840); format: functional;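 note: GSK3A result taken from a broad kinome-wide kinase panel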
[24] = target: Tyrosine-protein kinase ABL1 (Homo sapiens, UniProt P00519); format: functional
[25] = target: Serine/threonine-protein kinase Chk2 (Homo sapiens, UniProt O96017); format: functional;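 note: CHEK2 entry within a kinome-wide screening panel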
[26] = target: Cell division cycle 7-related protein kinase (Homo sapiens, UniProt O00311); format: functional;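 note: value obtained from a kinome-wide kinase panel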
[27] = target: MAP/microtubule affinity-regulating kinase 3 (Homo sapiens, UniProt P27448); format: functional;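 note: MARK3 affinity measured as one member of a kinome panel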
[28] = target: Casein kinase I isoform alpha (Homo sapiens, UniProt P48729); format: functional
[29] = target: cGMP-dependent protein kinase 1 (Homo sapiens, UniProt Q13976); format: functional;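 note: value from a kinome panel screen with PRKG1 as the panel member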
[30] = target: Megakaryocyte-associated tyrosine-protein kinase (Homo sapiens, UniProt P42679); format: functional;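 note: affinity measured as one member of a kinase panel (Navigating the Kinome) against MATK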
[31] = target: MAP kinase-activated protein kinase 2 (Homo sapiens, UniProt P49137); format: functional;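 note: measured as one member of a kinome-wide kinase panel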
[32] = target: Mitogen-activated protein kinase kinase kinase kinase 2 (Homo sapiens, UniProt Q12851); format: functional;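 note: measured as one member of a kinome-wide kinase panel, with MAP4K2 as the panel entry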
[33] = target: T1, Aurora kinase A (Homo sapiens, UniProt O14965); format: functional;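 note: value from the Navigating the Kinome kinase panel profiling, panel entry STK6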
T1 sequence (O14965 whole entry): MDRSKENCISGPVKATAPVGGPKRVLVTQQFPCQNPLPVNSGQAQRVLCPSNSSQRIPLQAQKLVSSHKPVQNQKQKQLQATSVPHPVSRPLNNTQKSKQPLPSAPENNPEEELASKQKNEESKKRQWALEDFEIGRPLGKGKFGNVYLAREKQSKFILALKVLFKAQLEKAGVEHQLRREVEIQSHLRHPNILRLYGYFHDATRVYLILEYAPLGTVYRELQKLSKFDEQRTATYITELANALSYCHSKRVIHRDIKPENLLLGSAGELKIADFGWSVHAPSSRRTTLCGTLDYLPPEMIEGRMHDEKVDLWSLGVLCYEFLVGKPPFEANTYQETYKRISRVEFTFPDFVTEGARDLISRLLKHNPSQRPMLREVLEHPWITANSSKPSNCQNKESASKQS

[34] = target: Cyclin-dependent kinase 7 (Homo sapiens, UniProt P50613); format: functional;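 note: value comes from a kinome-wide kinase profiling panel in which CDK7 is one member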
[35] = target: Serine/threonine-protein kinase TBK1 (Homo sapiens, UniProt Q9UHD2); test: Navigating the Kinome. Panel member name: TBK1; format: functional
[36] = target: Mitogen-activated protein kinase kinase kinase kinase 4 (Homo sapiens, UniProt O95819); format: functional
[37] = target: Serine/threonine-protein phosphatase (Candida dubliniensis (strain CD36 / CBS 7987 / NCPF 3949 / NRRLY-17841) (Yeast), UniProt B9W6M3); test: calcineurin pathway inhibitors in yeast reporter, dose response, S. cerevisiae, CDRE-lacZ, luminescence, secondary (AID 2388); format: functional, cell-based;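 note: yeast reporter cells carrying a calcineurin-responsive lacZ construct stimulated with calcium chloride; luminescent beta-galactosidase reporter signal in whole cells rather than isolated phosphatase activity; potency for inhibition where a drop in reporter signal means calcineurin blockade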
[38] = C. albicans growth with fluconazole, confirmation, fluorescence, retest (AID 2467); format: functional, cell-based
[39] = Counterscreen for AddAB inhibitors: absorbance-based bacterial cell-based high throughput dose response assay for inhibitors of bacterial viability. [Related pubchem assays (depositor defined):AID435030, AID449728, AID449731, AID488942, AID488955, AID488956]; format: functional

Proto-oncogene tyrosine-protein kinase receptor Ret, sequence (P07949 whole entry): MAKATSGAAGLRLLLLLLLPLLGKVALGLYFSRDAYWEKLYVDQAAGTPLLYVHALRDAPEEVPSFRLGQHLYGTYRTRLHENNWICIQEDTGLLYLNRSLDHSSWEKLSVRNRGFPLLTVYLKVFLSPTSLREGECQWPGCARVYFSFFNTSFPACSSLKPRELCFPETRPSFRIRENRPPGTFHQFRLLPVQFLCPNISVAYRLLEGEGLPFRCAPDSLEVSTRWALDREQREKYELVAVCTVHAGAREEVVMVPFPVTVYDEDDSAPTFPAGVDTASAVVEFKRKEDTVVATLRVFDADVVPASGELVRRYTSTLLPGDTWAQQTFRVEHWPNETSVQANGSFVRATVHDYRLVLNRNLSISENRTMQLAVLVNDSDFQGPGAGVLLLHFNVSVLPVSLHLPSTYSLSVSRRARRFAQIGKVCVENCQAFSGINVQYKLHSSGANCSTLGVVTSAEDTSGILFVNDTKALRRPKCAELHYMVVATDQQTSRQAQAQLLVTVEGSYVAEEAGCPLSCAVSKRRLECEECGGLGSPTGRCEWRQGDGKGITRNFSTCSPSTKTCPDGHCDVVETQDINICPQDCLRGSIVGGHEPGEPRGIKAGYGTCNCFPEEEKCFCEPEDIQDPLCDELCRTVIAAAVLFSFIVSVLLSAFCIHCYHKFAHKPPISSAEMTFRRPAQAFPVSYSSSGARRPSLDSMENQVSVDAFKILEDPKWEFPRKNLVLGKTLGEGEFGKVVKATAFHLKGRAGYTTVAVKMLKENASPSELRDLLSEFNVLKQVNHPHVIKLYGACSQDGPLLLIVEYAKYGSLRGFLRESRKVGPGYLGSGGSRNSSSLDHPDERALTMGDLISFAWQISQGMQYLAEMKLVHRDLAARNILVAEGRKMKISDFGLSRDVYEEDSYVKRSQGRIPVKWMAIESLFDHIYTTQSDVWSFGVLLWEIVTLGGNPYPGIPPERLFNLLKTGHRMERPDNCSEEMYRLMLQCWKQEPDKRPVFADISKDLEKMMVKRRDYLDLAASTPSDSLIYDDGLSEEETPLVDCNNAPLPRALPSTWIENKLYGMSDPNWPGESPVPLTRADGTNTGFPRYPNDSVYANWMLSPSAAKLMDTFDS
Cell division cycle 7-related protein kinase, sequence (O00311 whole entry): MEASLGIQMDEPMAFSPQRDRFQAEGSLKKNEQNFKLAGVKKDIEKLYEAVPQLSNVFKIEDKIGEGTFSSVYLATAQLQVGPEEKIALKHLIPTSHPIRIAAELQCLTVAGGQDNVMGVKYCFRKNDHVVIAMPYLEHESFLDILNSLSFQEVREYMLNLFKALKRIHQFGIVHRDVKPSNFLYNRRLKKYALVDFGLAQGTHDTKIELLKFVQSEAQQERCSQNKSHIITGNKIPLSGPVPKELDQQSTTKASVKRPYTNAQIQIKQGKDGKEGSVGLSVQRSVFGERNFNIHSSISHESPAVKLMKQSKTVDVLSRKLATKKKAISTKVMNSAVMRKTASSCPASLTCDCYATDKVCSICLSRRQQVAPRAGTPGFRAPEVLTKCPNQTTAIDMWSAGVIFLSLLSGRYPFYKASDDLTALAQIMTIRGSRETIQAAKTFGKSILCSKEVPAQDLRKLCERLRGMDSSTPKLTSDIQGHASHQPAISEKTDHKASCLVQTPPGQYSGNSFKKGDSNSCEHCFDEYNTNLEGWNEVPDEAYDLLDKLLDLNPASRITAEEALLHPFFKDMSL
Serine/threonine-protein kinase 17A, sequence (Q9UEE5 whole entry): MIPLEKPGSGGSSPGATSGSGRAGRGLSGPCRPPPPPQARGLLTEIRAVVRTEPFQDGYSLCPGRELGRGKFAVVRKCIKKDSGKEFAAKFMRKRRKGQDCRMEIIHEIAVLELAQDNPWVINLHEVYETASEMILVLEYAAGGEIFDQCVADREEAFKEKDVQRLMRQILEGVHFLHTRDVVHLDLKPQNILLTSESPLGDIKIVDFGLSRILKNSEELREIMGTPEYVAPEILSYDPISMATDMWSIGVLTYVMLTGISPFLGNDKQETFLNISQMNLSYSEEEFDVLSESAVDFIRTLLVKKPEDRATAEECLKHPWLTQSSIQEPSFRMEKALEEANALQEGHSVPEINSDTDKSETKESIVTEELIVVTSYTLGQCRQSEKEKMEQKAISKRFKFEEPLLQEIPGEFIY
Glycogen synthase kinase-3 alpha, sequence (P49840 whole entry): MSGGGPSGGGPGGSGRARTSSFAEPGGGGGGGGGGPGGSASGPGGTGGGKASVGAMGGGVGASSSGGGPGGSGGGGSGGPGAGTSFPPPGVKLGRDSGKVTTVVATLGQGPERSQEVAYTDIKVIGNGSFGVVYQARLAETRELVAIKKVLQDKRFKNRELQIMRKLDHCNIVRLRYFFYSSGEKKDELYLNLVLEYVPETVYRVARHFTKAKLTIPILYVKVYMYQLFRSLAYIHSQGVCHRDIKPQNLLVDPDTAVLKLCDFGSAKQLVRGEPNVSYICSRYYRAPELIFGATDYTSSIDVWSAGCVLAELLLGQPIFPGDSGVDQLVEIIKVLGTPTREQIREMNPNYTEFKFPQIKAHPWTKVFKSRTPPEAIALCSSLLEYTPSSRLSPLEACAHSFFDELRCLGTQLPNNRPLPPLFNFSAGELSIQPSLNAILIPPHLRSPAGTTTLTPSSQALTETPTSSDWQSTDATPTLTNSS
Dual specificity mitogen-activated protein kinase kinase 1, sequence (Q02750 whole entry): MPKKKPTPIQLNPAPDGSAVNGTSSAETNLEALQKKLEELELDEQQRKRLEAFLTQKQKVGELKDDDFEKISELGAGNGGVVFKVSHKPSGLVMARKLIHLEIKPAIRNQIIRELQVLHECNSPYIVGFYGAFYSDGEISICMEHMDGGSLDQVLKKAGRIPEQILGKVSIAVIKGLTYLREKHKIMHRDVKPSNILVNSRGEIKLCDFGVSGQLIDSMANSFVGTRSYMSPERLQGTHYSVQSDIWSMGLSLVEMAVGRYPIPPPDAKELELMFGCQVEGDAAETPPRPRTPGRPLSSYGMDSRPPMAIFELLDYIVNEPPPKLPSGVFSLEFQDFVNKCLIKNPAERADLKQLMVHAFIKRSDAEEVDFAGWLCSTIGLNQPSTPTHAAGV
Serine/threonine-protein kinase TBK1, sequence (Q9UHD2 whole entry): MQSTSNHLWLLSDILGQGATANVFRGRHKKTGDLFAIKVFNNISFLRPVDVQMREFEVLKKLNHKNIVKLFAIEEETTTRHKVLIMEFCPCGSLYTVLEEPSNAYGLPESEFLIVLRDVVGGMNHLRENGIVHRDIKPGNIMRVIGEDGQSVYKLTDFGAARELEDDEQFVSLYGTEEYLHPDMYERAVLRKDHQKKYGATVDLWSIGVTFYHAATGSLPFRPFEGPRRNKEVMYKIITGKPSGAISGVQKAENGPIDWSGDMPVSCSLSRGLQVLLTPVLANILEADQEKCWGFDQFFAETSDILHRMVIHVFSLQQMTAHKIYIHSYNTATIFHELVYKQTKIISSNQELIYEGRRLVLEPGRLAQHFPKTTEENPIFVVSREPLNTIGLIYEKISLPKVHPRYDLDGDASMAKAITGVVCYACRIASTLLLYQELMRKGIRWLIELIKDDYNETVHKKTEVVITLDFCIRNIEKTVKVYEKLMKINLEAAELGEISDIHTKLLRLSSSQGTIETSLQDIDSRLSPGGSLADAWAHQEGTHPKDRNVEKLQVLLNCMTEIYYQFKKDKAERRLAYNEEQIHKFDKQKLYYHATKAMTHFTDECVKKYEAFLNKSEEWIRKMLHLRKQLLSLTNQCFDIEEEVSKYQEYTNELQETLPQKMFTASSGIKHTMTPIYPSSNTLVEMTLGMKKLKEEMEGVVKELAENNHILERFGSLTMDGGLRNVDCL
Tyrosine-protein kinase ABL1, sequence (P00519 whole entry): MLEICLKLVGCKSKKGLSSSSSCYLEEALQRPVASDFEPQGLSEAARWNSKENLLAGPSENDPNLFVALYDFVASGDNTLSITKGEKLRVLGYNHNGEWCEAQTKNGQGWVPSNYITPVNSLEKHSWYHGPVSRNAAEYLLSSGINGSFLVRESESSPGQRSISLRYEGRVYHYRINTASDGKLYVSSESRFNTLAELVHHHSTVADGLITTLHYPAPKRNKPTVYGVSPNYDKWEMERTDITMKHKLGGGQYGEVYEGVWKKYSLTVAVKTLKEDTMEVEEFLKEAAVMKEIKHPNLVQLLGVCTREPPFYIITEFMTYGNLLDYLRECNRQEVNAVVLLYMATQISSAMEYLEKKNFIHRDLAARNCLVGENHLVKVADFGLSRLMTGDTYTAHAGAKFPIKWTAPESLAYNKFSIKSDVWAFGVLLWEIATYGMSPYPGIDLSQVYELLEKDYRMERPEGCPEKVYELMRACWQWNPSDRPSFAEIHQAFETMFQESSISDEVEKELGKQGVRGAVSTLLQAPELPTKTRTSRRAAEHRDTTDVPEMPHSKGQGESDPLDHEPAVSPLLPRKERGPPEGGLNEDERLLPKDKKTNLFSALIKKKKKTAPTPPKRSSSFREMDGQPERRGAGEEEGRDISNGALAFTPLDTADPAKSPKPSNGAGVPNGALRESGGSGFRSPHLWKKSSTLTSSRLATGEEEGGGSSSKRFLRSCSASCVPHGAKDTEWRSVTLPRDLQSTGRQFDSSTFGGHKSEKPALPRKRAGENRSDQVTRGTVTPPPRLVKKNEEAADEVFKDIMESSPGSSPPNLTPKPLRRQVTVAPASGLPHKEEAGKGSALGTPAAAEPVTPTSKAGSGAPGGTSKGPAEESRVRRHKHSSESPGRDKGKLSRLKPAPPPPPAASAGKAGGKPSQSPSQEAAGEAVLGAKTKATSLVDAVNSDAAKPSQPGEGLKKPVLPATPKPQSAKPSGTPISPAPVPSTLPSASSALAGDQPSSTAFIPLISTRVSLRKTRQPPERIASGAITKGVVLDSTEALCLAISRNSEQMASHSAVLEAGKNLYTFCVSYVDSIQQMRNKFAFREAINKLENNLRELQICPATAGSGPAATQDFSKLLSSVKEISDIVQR

Structure (SMILES): CS(=O)(=O)N(Cc1ccc2[nH]c(=O)c3cccn3c2c1)C1CC1
- Ki [1]: > 2.51 µM (inactive)
- Ki [2]: > 2 µM (inactive)
- Ki [3]: > 6.31 µM (inactive)
- Ki [4]: 31.6 nM (active)
- Ki [5]: > 3.16 µM (inactive)
- Ki [6]: > 1.58 µM (inactive)
- Ki [7]: > 7.94 µM (inactive)
- Ki [8]: > 100 µM (inactive)
- Ki [9]: > 3.98 µM (inactive)
- Ki [10]: > 1.26 µM (inactive)
- Ki [11]: > 7.94 µM (inactive)
- Ki [12]: > 5.01 µM (inactive)
- Ki [13]: > 3.98 µM (inactive)
- Ki [14]: > 1.58 µM (inactive)
- Ki [15]: > 1.58 µM (inactive)
- Ki [16]: 316 nM (active)
- Ki [17]: > 3.98 µM (inactive)
- Ki [18]: > 1.58 µM (inactive)
- Ki [19]: > 1.58 µM (inactive)
- Ki [20]: > 1.58 µM (inactive)
- Ki [21]: > 2.51 µM (inactive)
- Ki [22]: 50.1 nM (active)
- Ki [23]: > 2 µM (inactive)
- Ki [24]: > 1.58 µM (inactive)
- Ki [25]: > 1.58 µM (inactive)
- Ki [26]: 100 nM (active)
- Ki [27]: > 6.31 µM (inactive)
- Ki [28]: > 5.01 µM (inactive)
- Ki [29]: 251 nM (active)
- Ki [30]: 79.4 nM (active)
- Ki [31]: 79.4 nM (active)
- Ki [32]: > 2 µM (inactive)
- Ki [33]: > 794 nM (inactive)
- Ki [34]: > 3.98 µM (inactive)
- Ki [35]: > 3.16 µM (inactive)

Structure (SMILES): CS(=O)(=O)Nc1ccc(Nc2ccc3[nH]nc(N)c3c2)cc1
- Ki [36]: > 5.01 µM (inactive)

Structure (SMILES): O=C(Nc1n[nH]c2ccc(-c3cn(Cc4ccccc4)nn3)cc12)c1cc(F)ccc1F
- Ki [1]: 1.26 µM (active)
- Ki [3]: 0.126 µM (active)
- Ki [5]: > 3.16 µM (inactive)
- Ki [6]: 2 µM (active)
- Ki [36]: 2 µM (active)
- Ki [9]: > 3.98 µM (inactive)
- Ki [10]: > 3.98 µM (inactive)
- Ki [11]: > 3.16 µM (inactive)
- Ki [13]: > 3.98 µM (inactive)
- Ki [15]: > 3.16 µM (inactive)
- Ki [16]: > 1580 nM (inactive)
- Ki [17]: 0.2 µM (active)
- Ki [18]: > 2.51 µM (inactive)
- Ki [19]: > 2.51 µM (inactive)
- Ki [20]: 0.316 µM (active)
- Ki [21]: > 2.51 µM (inactive)
- Ki [23]: 0.00398 µM (active)
- Ki [24]: > 2.51 µM (inactive)
- Ki [26]: 3.16 nM (active)
- Ki [28]: 1.58 µM (active)
- Ki [32]: > 2.51 µM (inactive)
- Ki [33]: > 1580 nM (inactive)
- Ki [34]: 0.2 µM (active)
- Ki [35]: 0.794 µM (active)

Structure (SMILES): Cc1cc(NC(c2ccc(Cl)cc2)c2ccc3cccnc3c2O)no1 (stereo not drawn)
- EC50 [37]: > 180 µM (inactive)
- EC50 [38]: 741 nM (active)
- IC50 [39]: > 119 µM (inactive)
